The values below come from US20050101595A1, “N-containing cycloalkyl-substituted amino-thiazole derivatives and pharmaceutical compositions for inhibiting cell proliferation and methods for their use” (PFIZER INC., priority 2003, published 2005).

The target in assay [1] is human CDK4 and genetically truncated (1-264) cyclin D3 (Homo sapiens, UniProt P11802). In words: Inhibition of CDK4/Cyclin D Retinoblastoma Kinase Activity. In kind it is biochemical. The conditions noted are these: at 0.03 μM. Put shortly: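 Human CDK4/truncated cyclin D3 (1-264) complex from baculovirus-infected insect cells, 5 nM, phosphorylating Rb fragment (residues 386-928, His-tagged) with 25 μM [32/33P]ATP in HEPES pH 7.4, MgCl2, 2% DMSO at 30° C. for 20 min (60 min for tight binders). Filter-captured radioactivity by phosphorimager; apparent Ki from competitive or tight-binding fits.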
human CDK4 and genetically truncated (1-264) cyclin D3, sequence (P11802 whole entry, the tested form may be a part): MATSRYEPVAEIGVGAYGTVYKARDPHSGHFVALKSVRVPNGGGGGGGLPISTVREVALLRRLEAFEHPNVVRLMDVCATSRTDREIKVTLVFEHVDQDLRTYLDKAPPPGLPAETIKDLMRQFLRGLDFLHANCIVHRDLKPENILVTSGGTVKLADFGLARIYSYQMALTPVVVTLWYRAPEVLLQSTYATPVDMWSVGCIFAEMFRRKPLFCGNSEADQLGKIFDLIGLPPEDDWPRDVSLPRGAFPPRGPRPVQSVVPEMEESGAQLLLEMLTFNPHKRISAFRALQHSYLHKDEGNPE
human CDK4 and genetically truncated (1-264) cyclin D3, sequence (P30281 1-264 partner): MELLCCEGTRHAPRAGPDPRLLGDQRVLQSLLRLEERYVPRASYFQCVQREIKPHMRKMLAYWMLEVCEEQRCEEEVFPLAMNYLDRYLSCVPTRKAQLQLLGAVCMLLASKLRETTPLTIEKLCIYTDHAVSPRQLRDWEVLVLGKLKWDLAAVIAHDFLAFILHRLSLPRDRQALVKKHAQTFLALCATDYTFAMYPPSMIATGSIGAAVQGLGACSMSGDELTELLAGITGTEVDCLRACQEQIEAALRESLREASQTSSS

A further assay deals with HCT-116 cell line. In words: Inhibition of cell growth, tetrazolium salt (MTT) assay. In kind it is cell-based. Particulars: HCT-116 cells. Put shortly:
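HCT-116 cells in McCoy's 5A medium received compound 4 h after plating (0.5% v/v DMSO) and were incubated three to five days at 37° C, 5% CO2. MTT (0.2 mg/mL final) then added for 4 h; DMSO-solubilized formazan read at 540 nm against 0.5% DMSO-treated controls.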

Another assay has as its target CDK2/Cyclin A (Homo sapiens, UniProt P24941). In words: Inhibition of CDK2/Cyclin A Retinoblastoma Kinase Activity. It counts as biochemical. The conditions noted are these: at 0.03 μM. An outline of the steps: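 Baculovirus-expressed CDK2 complexed with proteolyzed cyclin A (10 or 19 nM), Rb fragment substrate, 25 μM [32P/33P]ATP, HEPES pH 7.4, 30 °C for 60 or 75 min under initial-rate conditions. Filter capture and phosphorimager readout; apparent Ki fitted to competitive or tight-binding competitive inhibition.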

In the case of `CS(=O)(=O)c1csc(C(=O)N2CCC(Nc3nc(N)c(C(=O)c4c(F)cccc4F)s3)CC2)c1Cl` [Example R72], the “CDK4 % Inhibition at 0.03 μM” value in assay [1] amounted to 59%. In the assay on HCT-116 cell line, the “HCT-116 % Inhibition at 0.1 μM” value is 6% and the “HCT-116 5 Inhibition at 0.25 μM” value is 43. For the same compound, on CDK2/Cyclin A, the “CDK2 % Inhibition at 0.03 μM” value came to 57%.
Consider `Nc1nc(NC2CCN(C(=O)[C@H](Cc3ccccc3)NS(=O)(=O)c3cccc4ccccc34)CC2)sc1C(=O)c1c(F)cccc1F` [Example R73], for which, in assay [1], the “CDK4 % Inhibition at 0.03 μM” value is reported as 19%. Besides, in the assay on HCT-116 cell line, the “HCT-116 % Inhibition at 0.1 μM” value is 4% and the “HCT-116 5 Inhibition at 0.25 μM” value is given as 38. The “CDK2 % Inhibition at 0.03 μM” value on CDK2/Cyclin A was found to be 6%.
For `Nc1nc(NC2CCN(C(=O)[C@H](Cc3ccccc3)NS(=O)(=O)c3ccc([N+](=O)[O-])cc3)CC2)sc1C(=O)c1c(F)cccc1F` [Example R74], in that order: 20%, 0.12%, 42 and 3%.
For `Cc1ccc(S(=O)(=O)N[C@@H](Cc2ccccc2)C(=O)N2CCC(Nc3nc(N)c(C(=O)c4c(F)cccc4F)s3)CC2)cc1` [Example R75], in that order: 13%, 0%, 41 and 26%.
The corresponding values for `COC(=O)CCCCCCCCC(=O)N1CCC(Nc2nc(N)c(C(=O)c3c(F)cccc3F)s2)CC1` [Example R76] are 64%, 0%, 38 and 53%.
Turning to `Cc1oc(-c2ccccc2)cc1C(=O)N1CCC(Nc2nc(N)c(C(=O)c3c(F)cccc3F)s2)CC1` [Example R77], in assay [1], the “CDK4 % Inhibition at 0.03 μM” value was found to be 15%. Moreover, in the assay on HCT-116 cell line, the “HCT-116 % Inhibition at 0.1 μM” value was 0% and the “HCT-116 5 Inhibition at 0.25 μM” value stood at 44. The “CDK2 % Inhibition at 0.03 μM” value at CDK2/Cyclin A is recorded as 19%.
Turning to `Nc1nc(NC2CCN(C(=O)CC3CCCC3)CC2)sc1C(=O)c1c(F)cccc1F` [Example R78], in assay [1], the “CDK4 % Inhibition at 0.03 μM” value was 19%. Besides, in the assay on HCT-116 cell line, the “HCT-116 % Inhibition at 0.1 μM” value is 0% and the “HCT-116 5 Inhibition at 0.25 μM” value came out at 47. Also, the “CDK2 % Inhibition at 0.03 μM” value at CDK2/Cyclin A is 20%.
The corresponding values for `CN(C)c1ccc(C(=O)N2CCC(Nc3nc(N)c(C(=O)c4c(F)cccc4F)s3)CC2)cc1` [Example R79] are 16%, 0%, 47 and 14%.
For the compound `Nc1nc(NC2CCN(C(=O)N3CCOCC3)CC2)sc1C(=O)c1c(F)cccc1F` [Example R80], in assay [1], the “CDK4 % Inhibition at 0.03 μM” value worked out at 37%. Also, in the assay with HCT-116 cell line, the “HCT-116 % Inhibition at 0.1 μM” value was 0% and the “HCT-116 5 Inhibition at 0.25 μM” value was 47. In addition, on CDK2/Cyclin A, the “CDK2 % Inhibition at 0.03 μM” value was 7%.
Regarding `Nc1nc(NC2CCN(C(=O)N3CCCC3)CC2)sc1C(=O)c1c(F)cccc1F` [Example R81], the “CDK4 % Inhibition at 0.03 μM” value in assay [1] is reported as 29%. Besides, in the assay on HCT-116 cell line, the “HCT-116 % Inhibition at 0.1 μM” value is 13% and the “HCT-116 5 Inhibition at 0.25 μM” value is 43. The “CDK2 % Inhibition at 0.03 μM” value on CDK2/Cyclin A is on record as −10%.
As for `COCCOC(=O)N1CCC(Nc2nc(N)c(C(=O)c3c(F)cccc3F)s2)CC1` [Example R82], the “CDK4 % Inhibition at 0.03 μM” value in assay [1] is recorded as 17%. Moreover, in the assay on HCT-116 cell line, the “HCT-116 % Inhibition at 0.1 μM” value was 0% and the “HCT-116 5 Inhibition at 0.25 μM” value came out at 50. On CDK2/Cyclin A, the “CDK2 % Inhibition at 0.03 μM” value is given as −11%.
For `CCN1CCN(C(=O)N2CCC(Nc3nc(N)c(C(=O)c4c(F)cccc4F)s3)CC2)C(=O)C1=O` [Example R83], in that order: 52%, 0%, 45 and 21%.
Regarding `CC(C)OC(=O)N1CCC(Nc2nc(N)c(C(=O)c3c(F)cccc3F)s2)CC1` [Example R84], the “CDK4 % Inhibition at 0.03 μM” value in assay [1] was found to be 21%. For the same compound, in the assay on HCT-116 cell line, the “HCT-116 % Inhibition at 0.1 μM” value turned out to be 0% and the “HCT-116 5 Inhibition at 0.25 μM” value stood at 41. For the same compound, the “CDK2 % Inhibition at 0.03 μM” value at CDK2/Cyclin A stood at 4%.
As for `Nc1nc(NC2CCN(C(=S)Oc3ccc(F)cc3)CC2)sc1C(=O)c1c(F)cccc1F` [Example R85], the “CDK4 % Inhibition at 0.03 μM” value in assay [1] was found to be 81%. Besides, in the assay on HCT-116 cell line, the “HCT-116 % Inhibition at 0.1 μM” value came to 0% and the “HCT-116 5 Inhibition at 0.25 μM” value came to 47. Besides, at CDK2/Cyclin A, the “CDK2 % Inhibition at 0.03 μM” value came to 90%.
For `CC1CCC(C(C)C)C(OC(=O)N2CCC(Nc3nc(N)c(C(=O)c4c(F)cccc4F)s3)CC2)C1` (centres unmarked) [Example R86], in that order: 9%, 0%, 34 and 9%.
For `Nc1nc(NC2CCN(C(=O)OC3CCCC3)CC2)sc1C(=O)c1c(F)cccc1F` [Example R87], in that order: 28%, 0%, 36 and 17%.
For `CC(C)(C)COC(=O)N1CCC(Nc2nc(N)c(C(=O)c3c(F)cccc3F)s2)CC1` [Example R88], in that order: −3%, 0%, 42 and 6%.
As for `Nc1nc(NC2CCN(C(=O)C3CC3)CC2)sc1C(=O)c1c(F)cccc1F` [Example R89], the “CDK4 % Inhibition at 0.03 μM” value in assay [1] is 5%. In the assay on HCT-116 cell line, the “HCT-116 % Inhibition at 0.1 μM” value is given as 0% and the “HCT-116 5 Inhibition at 0.25 μM” value is recorded as 46. Besides, the “CDK2 % Inhibition at 0.03 μM” value on CDK2/Cyclin A was 3%.
For `Nc1nc(NC2CCN(C(=O)C3(c4ccccc4)CC3)CC2)sc1C(=O)c1c(F)cccc1F` [Example R90], in that order: −6%, 0%, 19 and −2%.
For `Nc1nc(NC2CCN(C(=O)C3(c4ccc(Cl)cc4)CC3)CC2)sc1C(=O)c1c(F)cccc1F` [Example R91], in that order: 14%, 2%, 41 and −1%.
The corresponding values for `CC1CC1C(=O)N1CCC(Nc2nc(N)c(C(=O)c3c(F)cccc3F)s2)CC1` (centres unmarked) [Example R93] are −1%, 0%, 42 and −10%.
Turning to `Nc1nc(NC2CCN(C(=O)C3Cc4ccccc43)CC2)sc1C(=O)c1c(F)cccc1F` (centres unmarked) [Example R94], the “CDK4 % Inhibition at 0.03 μM” value in assay [1] was −5%. In the assay on HCT-116 cell line, the “HCT-116 % Inhibition at 0.1 μM” value turned out to be 0% and the “HCT-116 5 Inhibition at 0.25 μM” value is on record as 42. The “CDK2 % Inhibition at 0.03 μM” value on CDK2/Cyclin A was 10%.
As for `Nc1nc(NC2CCN(C(=O)C3(c4ccccc4)CCCC3)CC2)sc1C(=O)c1c(F)cccc1F` [Example R95], the “CDK4 % Inhibition at 0.03 μM” value in assay [1] is −27%. Further, in the assay on HCT-116 cell line, the “HCT-116 % Inhibition at 0.1 μM” value is recorded as 0% and the “HCT-116 5 Inhibition at 0.25 μM” value stood at 38. In addition, at CDK2/Cyclin A, the “CDK2 % Inhibition at 0.03 μM” value was −13%.
